Tests used:
[1] = tested on: ASPC-1 tumor-bearing mice; experiment: Biodistribution of radionuclide labeled complexes in ASPC-1 tumor-bearing mice; assay type: in vivo, BALB/c nude mice; conditions: ^177Lu-labeled complex
In short: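 BALB/c nude mice bore subcutaneous flank xenografts from ~4×10^6 NTSR-1-expressing cells, grown 2-4 weeks to ~0.05-0.50 g. Labeled compound, ~30-50 μCi (30-250 μCi/nmol specific activity) in 0.9% NaCl, was given by tail vein; organs were excised, weighed and γ-counted at various times for % ID and % ID/g.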

human NTSR-1 [2] = target: T1, human NTSR-1 (Homo sapiens (Human), UniProt P30989); experiment: radioligand competitive binding assay using ^177Lu labeled C-1 as reference radioligand; conditions: Mean IC50 of C-1/Mean IC50 of the test compound
T1 sequence (P30989 whole entry): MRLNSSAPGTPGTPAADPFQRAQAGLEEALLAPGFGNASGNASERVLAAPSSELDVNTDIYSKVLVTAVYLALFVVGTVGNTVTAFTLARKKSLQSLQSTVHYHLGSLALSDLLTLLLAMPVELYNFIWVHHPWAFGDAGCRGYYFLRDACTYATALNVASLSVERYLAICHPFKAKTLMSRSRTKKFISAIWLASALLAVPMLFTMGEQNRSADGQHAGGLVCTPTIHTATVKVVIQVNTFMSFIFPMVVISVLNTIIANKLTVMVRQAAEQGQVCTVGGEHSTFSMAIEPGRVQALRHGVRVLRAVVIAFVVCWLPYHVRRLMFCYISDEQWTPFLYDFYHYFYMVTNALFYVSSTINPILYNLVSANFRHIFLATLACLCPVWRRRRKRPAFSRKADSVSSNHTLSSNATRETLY
Experimental: The binding affinities of test compounds were determined by a radioligand competitive binding assay using ^177Lu labeled C-1 as the reference radioligand.
Briefly, 100 μL HT-29 cells expressing human NTSR-1 at a density of 1˜2×10^6 cells/mL were mixed with binding buffer (RPMI-1640 medium supplemented with 0.25% bovine serum albumin) in each well of the 96-well filter plate (Millipore). Then the cells in each well were incubated with ^177Lu—C-1 (0.55 μCi/well) and the test compound under 37° C. for 1 hr (n=3). After incubation, unbound ^177Lu—C-1 and the test compound in each well was removed by filtration using a Multiscreen vacuum manifold (Millipore) and the cells were further rinsed with the binding buffer for 5 times. The cells from each well were then collected and radioactivity of the cells in each well was individually measured by y counter (2480 WIZARD2, PerkinElmer). The best-fit IC50 value of test compounds (inhibitory concentration when 50% of the bound ^177Lu—C-1 on cells were displaced) were calculated by fitting the data with nonlinear regression using GraphPad Prism 8.0.1.

human NTSR-1 [3] = target: T1, human NTSR-1; experiment: FLIPR assay, inhibition of Neurotensin-induced intracellular-calcium mobilization; assay type: cell-based; conditions: for IC50 compared to comparator compound C-2: FLIPR assay; for IC50: HEK293 cells stably expressing human NTSR-1, mean, read-out: IC50 (nM) in FLIPR Assays
Experimental: Binding affinities of the representative compounds were also evaluated by FLIPR assay. Neurotensin receptor 1 belongs to the G-protein coupled receptors (GPCR) family. Activation of NTSR-1 by its ligand Neurotensin can induce intracellular-calcium mobilization. In FLIPR assay, the test compound and Neurotensin were incubated together with cells expressing NTSR-1 to measure inhibition of the intracellular-calcium mobilization by the test compound so that to evaluate its binding affinity.
Briefly, HEK293 cells stably expressing human NTSR-1 were plated in 384-well plates. 20 ul cell suspension at a concentration of 10×10^5 per ml was seeded in each well and incubated at 37° C. 5% CO2 overnight. Then the cells in each well were mixed with 20 ul probenecid assay buffer, 20 ul 8 uM Fluo-4 Direct™ Loading Buffer, 6×EC80 of Neurotensin and 10 μl of the diluted test compound, and incubated at 37° C. 5% CO2 for 50 min followed by incubation at room temperature for 10 min. The plate was then subject to FLIPR analysis.

Row | SMILES | AUC (0-72 h) ratio Tumor/Blood [1] | AUC (0-72 h) ratio Tumor/Kidney [1] | AUC (0-72 h) ratio Tumor/Liver [1] | AUC (0-72 h) ratio Tumor/Lung [1] | Relative Binding Affinity (human NTSR-1 [2]) | IC50 compared to comparator compound C-2 (human NTSR-1 [3]) | IC50 (human NTSR-1 [3]) [nM]
1 | COc1cccc(OC)c1-c1cc(C(=O)NC2(C(=O)O)C3CC4CC(C3)CC2C4)nn1-c1ccc(NC(=O)CCCN(C)CCCN(C)C(=O)CN2CCN(CC(=O)O)CCN(CC(=O)O)CCN(CC(=O)O)CC2)cc1C(C)C (centres unmarked) [Compound I-5, 2,2′,2″-(10-(2-((3-((4-((4-(3-((2-carboxyadamantan-2-yl)carbamoyl)-5-(2,6-dimethoxyphenyl)-1H-pyrazol-1-yl)-3-isopropylphenyl)amino)-4-oxobutyl)(methy)amino)propyl)(methyl)amino)-2-oxoethyl)-1,4,7,10-tetraazacyclododecane-1,4,7-triyl)triacetic acid] | 10.0 | 14.2 | 16.7 | 48.3 | 146.4 | lower IC50 | 26.9
2 | COc1cccc(OC)c1-c1cc(C(=O)NC2(C(=O)O)C3CC4CC(C3)CC2C4)nn1-c1ccc(OCCCN(C)CCCN(C)C(=O)CN2CCN(CC(=O)O)CCN(CC(=O)O)CCN(CC(=O)O)CC2)cc1C(C)C (centres unmarked) [Compound I-7, 2,2′,2″-(10-(2-((3-((3-(4-(3-((2-carboxyadamantan-2-yl)carbamoyl)-5-(2,6-dimethoxyphenyl)-1H-pyrazol-1-yl)-3 isopropylphenoxy)propyl)(methyl)amino)propyl)(methyl)amino)-2-oxoethyl)-1,4,7,10-tetraazacyclododecane-1,4,7-triyl)triacetic acid] | 34.4 | 18.1 | 23.1 | 40.1 | 156.7 | lower IC50 | 11.7

Reference: US20240287046A1, “COMPOUNDS AND RADIOLIGANDS FOR TARGETING NEUROTENSIN RECEPTOR AND USES THEREOF” (Full-Life Technologies HK Limited, priority 2022, published 2024)
